Laboratory results reported in patent US8163709B2, “TAK1-D mediated induction of cell death in human cancer cells by specific sequence short double-stranded RNAS” (Board of Regents of the University of Texas System, priority 2008, dated 2012).
“Also recorded” adds a separate entry of the source. d = 2'-deoxy (DNA); r = 2'-OH (RNA)

Columns and labels:
SAPK/JNK pathway = assay: Activation of the SAPK/JNK pathway in H460 cells (Western blot); format: cell-based, human; conditions: H460, ribotoxins 90 minutes (same concentrations)
p38 MAP kinase pathway = assay: Activation of the p38 MAP kinase pathway in H460 cells (Western blot); format: cell-based, human
Text: Both siRNAs were directed against the mRNA of the same gene TLK1.

TAK1-D = target: T1, TAK1-D (Homo sapiens, UniProt O43318); assay: TAK1-D autophosphorylation on T184/T187 in H460 cells (Western blot, phospho-specific antibody); format: cell-based; parameters: endogenous in cells; host or cells: NCI-H460; conditions: for activating autophosphorylation of TAK1-D on T184 and T187: H460, ribotoxins 90 minutes (same concentrations); for activating autophosphorylation (activation) of TAK1-D on T184 and T187: RNA transfected (20 nM), Western blot
T1 sequence (O43318 1-491 isoform O43318-4): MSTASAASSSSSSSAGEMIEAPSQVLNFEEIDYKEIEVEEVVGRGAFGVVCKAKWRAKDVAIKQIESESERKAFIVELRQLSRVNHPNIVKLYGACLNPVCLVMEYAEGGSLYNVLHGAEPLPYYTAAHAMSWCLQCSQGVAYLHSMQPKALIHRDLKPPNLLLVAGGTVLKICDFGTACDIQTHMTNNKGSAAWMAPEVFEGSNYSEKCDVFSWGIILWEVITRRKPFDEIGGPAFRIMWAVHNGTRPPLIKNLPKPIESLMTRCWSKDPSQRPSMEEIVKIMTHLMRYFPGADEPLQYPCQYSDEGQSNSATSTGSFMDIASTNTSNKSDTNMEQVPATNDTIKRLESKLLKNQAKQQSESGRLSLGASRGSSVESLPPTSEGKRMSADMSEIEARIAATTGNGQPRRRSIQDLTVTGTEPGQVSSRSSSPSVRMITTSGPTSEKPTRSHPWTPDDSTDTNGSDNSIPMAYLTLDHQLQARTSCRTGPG
Procedure: In an effort to identify the MAPKKK responsible for the activation of the p38 MAP kinase and SAPK/JNK pathway, several of these kinases were screened for siRNA si5 mediated activation.
Immunoblot analysis. Western blotting was performed exactly as described previously (Kodym et al., 2008b). In addition to the primary antibodies previously mentioned (Kodym et al., 2008b) the following antibodies were used: S6 ribosomal protein (Cell Signaling #2217), DPM1 (Santa Cruz #sc-15836, Santa Cruz, Calif., USA), and Histone H3 (Cell Signaling #9715).

NF-κB = NF-κB activation in H460 cells (EMSA, IKKα/β phosphorylation); format: cell-based, human; conditions: 10 ng/ml, 30 min, listed as IL1β
Procedure: EMSA. Electrophoretic mobility shift assays for NFκB were performed as described previously (Kurland et al., 2001) using 3.5 μg of nuclear protein for each reaction.
FIG. 16B illustrates the effect of dominant-negative TAK1-D/K63W on dsRNA si5 induced cell death. […] As a slight growth inhibition of si5 transfected H460-K63W cells can be observed in FIG. 16B it is interesting to ask whether this is caused by an incomplete suppression of TAK1-D activity or by activation of other dsRNA-dependent stress pathways. To answer this question, the activation of the transcription factor NF-κB by dsRNA si5 was tested, as it well established that dsRNA triggered activation of PKR (Zamanian-Daryoush et al., 2000), TLR3 (Jiang et al., 2003), and RIG1/Mda-5 (Hiscott et al., 2006) leads to a downstream activation of NF-κB.

TAK1-A = assay: Autophosphorylation of the other (long) Tak1 splicing variants in H460 cells; format: cell-based, human; conditions: 10 ng/ml, 30 min
Text: In contrast only the long form (TAK1-A) is able to activate the NFκB pathway through phosphorylation of IKKα/β.

TLK1 = TLK1 post-transcriptional silencing in HeLa cells (Western blot); format: cell-based, human; conditions: 48 h after transfection
Procedure: In order to test whether dsRNA molecules show the same cellular uptake and stability the efficiency of these molecules to post-transcriptionally silence the expression of TLK1 was determined as si6 as well as si5 siRNA are directed against the mRNA of this protein. […] As a loading control the unchanged expression levels of TAK1-A/B and 3-tubulin are shown in the two lower panels.

H460 cells = assay: Survival assay of H460 cells, Crystal Violet staining

CN(CC[C@H](N)CC(=O)N[C@H]1C=C[C@H](n2ccc(N)nc2=O)O[C@@H]1C(=O)O)C(=N)N [Blasticidin S]
activating phosphorylations of SAPK/JNK and its upstream kinase MKK4 (SAPK/JNK pathway): induced activating phosphorylations
activating phosphorylations of SAPK/JNK and its upstream kinase MKK4 (SAPK/JNK pathway; listed as blasticidin S): induce an activation of p38 MAP kinase and SAPK/JNK
activating phosphorylations of p38 MAP kinase and its upstream kinases MKK3/6 (p38 MAP kinase pathway): induced activating phosphorylations; also recorded: induce an activation of p38 MAP kinase and SAPK/JNK
activating autophosphorylation of TAK1-D on T184 and T187 (TAK1-D): No such activation was detectable

C[C@@H]1C[C@@H]([C@H](O)CC2CC(=O)NC(=O)C2)C(=O)[C@@H](C)C1 [Cycloheximide]
activating phosphorylations of SAPK/JNK and its upstream kinase MKK4 (SAPK/JNK pathway): induced activating phosphorylations
activating phosphorylations of SAPK/JNK and its upstream kinase MKK4 (SAPK/JNK pathway; listed as cycloheximide): induce an activation of p38 MAP kinase and SAPK/JNK
activating phosphorylations of p38 MAP kinase and its upstream kinases MKK3/6 (p38 MAP kinase pathway): induced activating phosphorylations; also recorded: induce an activation of p38 MAP kinase and SAPK/JNK
activating autophosphorylation of TAK1-D on T184 and T187 (TAK1-D): No such activation was detectable

CN[C@@H]1[C@@H](O)[C@@H](O[C@@H]2[C@@H](O)[C@H](O[C@H]3O[C@H]([C@@H](C)O)[C@@H](O)[C@H](O)[C@H]3N)[C@@H](N)C[C@H]2N)OC[C@]1(C)O [G418]
activating phosphorylations of SAPK/JNK and its upstream kinase MKK4 (SAPK/JNK pathway): exception
activating phosphorylations of p38 MAP kinase and its upstream kinases MKK3/6 (p38 MAP kinase pathway): exception

COc1ccc(C[C@H](N)C(=O)N[C@H]2[C@@H](O)[C@H](n3cnc4c(N(C)C)ncnc43)O[C@@H]2CO)cc1 [Puromycin, reference compound]
activating phosphorylations of SAPK/JNK and its upstream kinase MKK4 (SAPK/JNK pathway): induced activating phosphorylations
activating phosphorylations of p38 MAP kinase and its upstream kinases MKK3/6 (p38 MAP kinase pathway): induced activating phosphorylations
activating autophosphorylation of TAK1-D on T184 and T187 (TAK1-D): led to an activating autophosphorylation of TAK1-D
activating autophosphorylation of TAK1-D on T184 and T187 (TAK1-D; listed as puromycin): induce an activating TAK1-D phosphorylation

AU: dsRNA with alternating A and U bases (control, SEQ ID NO:21 and 22) (chain 1 AUAUAUAUAUAUAUAUAUATT; chain 2 TTUAUAUAUAUAUAUAUAUAU; chemistry not given here) [reference compound]
activating autophosphorylation (activation) of TAK1-D on T184 and T187 (TAK1-D; H460 cells): does not activate the TAK1-D pathway

IL1: interleukin 1, positive control activating the long TAK1 variant via IL-1 receptor
activation of the NFκB cascade (IKKα/β phosphorylation) (NF-κB): activates the NFκB pathway
autophosphorylation of the long splicing variant of Tak1 (TAK1-A): autophosphorylation of the large splicing variant of Tak1 (A and B)
autophosphorylation of the long splicing variant of Tak1 (TAK1-A; listed as IL1β): activates exclusively the long form of TAK1 (TAK1-A)
activation of the p38 MAP kinase pathway (MKK3/6) (p38 MAP kinase pathway; H460 cells, 10 ng/ml IL1): activating the p38 MAP kinase pathway (MKK3/6)
activation of TAK1-D (TAK1-D; H460 cells, 10 ng/ml IL-1): does not activate TAK1-D

OmeD: si5 sequence with 2′-O-methyl on both strands (SEQ ID NO:23 and 24) (chain 1 GGCUUUUGACCUUUAUGAAUU; chain 2 UUCCGAAAACUGGAAAUACUU; siRNA; 2'-O-methyl at dot-marked bases on both strands, pattern not given here; one strand is listed 3' to 5')
activating autophosphorylation (activation) of TAK1-D on T184 and T187 (TAK1-D; H460 cells): no activation of Tak1-D could be detected
expression level of TLK1 (TLK1): very significant reduction in the expression of TLK1

OmeS: si5 sequence with several bases of the sense strand 2′-O-methyl modified (SEQ ID NO:25 and 26) (chain 1 GGCUUUUGACCUUUAUGAAUU; chain 2 TTCCGAAAACUGGAAAUACUU; 2'-O-methyl on sense strand bases, chemistry not fully specified; one strand is listed 3' to 5')
expression level of TLK1 (TLK1): very significant reduction in the expression of TLK1

shRNA: short hairpin RNA containing the si5 sequence, in vitro transcribed with T7 RNA polymerase (SEQ ID NO:20) (GGCUUUUGACCUUUAUGAAUUAAUUCAUAAAGGUCAAAAGCC; siRNA; RNA, phosphodiester; hairpin)
cell death, crystal violet (H460 cells; H460, 48 hours after transfection, shRNA experiment): led to cell death

si5OMeA: si5 sequence with U and G 2′-O-methylated in the antisense strand only (SEQ ID NO:27 and 28) (chain 1 GGCUUUUGACCUUUAUGAATT; chain 2 UUCCGAAAACUGGAAAUACUU; 2'-O-methyl U and G in antisense strand, chemistry not fully specified; one strand is listed 3' to 5')
expression level of TLK1 (TLK1): very significant reduction in the expression of TLK1

si5d: si5 with one U of the homopolymeric stretch changed to a C (SEQ ID NO:19) (GGCUUCUGACCUUUAUGAATT; siRNA; sugars from the 5' end r19 d2, backbone not given here)
activating autophosphorylation (activation) of TAK1-D on T184 and T187 (TAK1-D; H460 cells): significantly reduced the capacity of the molecule to activate TAK1-D
expression level of TLK1 (TLK1): very significant reduction in the expression of TLK1

si5l: si5 extended by adding 2 ribonucleotides (SEQ ID NO:18) (GGCUUUUGACCUGUUUAUGAATT; siRNA; sugars from the 5' end r21 d2, backbone not given here)
activation of the p38 MAP kinase pathway (phosphorylation of MKK3/6, p38 MAPK) (p38 MAP kinase pathway; H460 cells, 20 nM RNA, 2-6 h): small activation of Tak1-D and p38 MAPK could still be observed
activating autophosphorylation (activation) of TAK1-D on T184 and T187 (TAK1-D; H460 cells): significantly reduced its activity
expression level of TLK1 (TLK1): lack of post-transcriptional silencing of TLK1

si5s: si5 with two ribonucleotides in the middle of the molecule deleted (SEQ ID NO:17) (GGCUUUUGACUUAUGAATT; siRNA; sugars from the 5' end r17 d2, backbone not given here)
activating autophosphorylation (activation) of TAK1-D on T184 and T187 (TAK1-D; H460 cells): completely abolished its ability to activate Tak1-D
expression level of TLK1 (TLK1): lack of post-transcriptional silencing of TLK1

si6: control 21-mer siRNA against TLK1 mRNA: GGGUGGAAAUGGCUCAAGUtt (SEQ ID NO: 4) / gtCCCACCUUUACCGAGUUCA (SEQ ID NO: 5) (sense GGGUGGAAAUGGCUCAAGUTT; antisense GTCCCACCUUUACCGAGUUCA; Artificial primer) [reference compound]
cytotoxicity, Crystal Violet (H460 cells; H460, concentration range tested (up to 20 nM), 48 h): does not show any significant cytotoxicity
